# Measurements as given in patent US11523610B2, “Regulating plant growth using a diapocarotenoid” (King Abdullah University of Science and Technology, priority 2018, dated 2022).
# “Also recorded” adds a separate entry of the source.
# How the values were obtained:
# Format in all cases: in vivo
# [1] = tested on: Arabidopsis root growth (Col-0 seedlings); test: Primary root length of Arabidopsis seedlings on treated half MS agar plates
# Experimental: β-cyclocitral, β-ionone and D′orenone (β-Apo-13-caroteneone) (FIG. 1A) were purchased from Buchem (Netherlands). Diapo1, Diapo2, Diapo3, Diapo4, Diapo5, and Diapo6 (FIG. 1B) were synthesized by Buchem (Netherlands). Diapo3 was also synthesized together with D6-anchorene and anchorene derivatives according to the protocol of SCHEME 2. Apocarotenoids and diapocarotenoids were dissolved in acetone to make stock solutions (10 mM). For the screening experiments, each chemical was diluted in half strength Murashige and Skoog (MS) media (with 0.5% sucrose+1% agar, 0.5 g/L MES, pH 5.7) to reach indicated concentrations of 25 μM and 5 μM. A stock solution of 10 mM GR24 (Chiralix, Netherlands) was also made by diluting GR24 in acetone. Stock solutions of D15 (100 mM), Norflurazone (5 mM), and CPTA (50 mM) were made in dimethyl sulfoxide (DMSO). For experiments, these compounds were diluted in concentrations of 125 μM D15, 500 nM Norflurazone, or 100 μM CPTA, respectively. 1-Naphthaleneacetic acid (NAA) and N-1-Naphthylphthalamic Acid (NPA) were purchased from Sigma-Aldrich (Germany) and dissolved in water to make 1 mM stock solutions. For NAA and NPA treatments, media containing 0.1 μM NAA and 1 μM NPA were used. Unless otherwise noted, all commercially available compounds were used as provided without further purification.
# Sterilized Col-0 and mutants seeds were kept at 4° C. in darkness for 3 days to stimulate seed germination, and then sown on half strength MSO plates (with 0.5% sucrose +1% agar, 0.5g/L MES, pH 5.7) supplemented with the indicated chemicals as described below or in the Figures. Plates were vertically grown in PERCIVAL® growth chambers under long day (16 h light/8 h dark, 22° C., 60% relative humidity, light density: 4000 LUX) LED white light [HYPERIKON® 16 W LED Light Bulb A21, 16 W (100 W Equivalent), CRI92, 1620 Lumens, 4000K (Daylight Glow)] conditions. Light fluorescence rates were measured using a digital LUX meter ([…]® 5025).
# (§1) ANRs were counted in seedlings vertically grown on half strength MS (with 0.5% sucrose +1% agar, 0.5 g/L MES, pH 5.7) media 8 days post-stratification (dps) using a dissection microscope. To investigate ANR formation after root apical meristems (RAM) excision (ANR-RE), RAM of seedlings were excised using sterile scalpels at 5 dps and then grown for another 3 days prior to counting the number of emerged ANRs. RAM of seedlings were excised at 8 dps and then grown for another 3 days prior to counting the number of emerged LRs. For determining the effect of anchorene on lateral roots, the number of emerged lateral roots were counted using a dissection microscope at 8 dps. For primary root length measurements, seedlings were measured using the publicly available ImageJ software (downloaded from rsbweb.nih.gov/ij/) after taking digital photographs. For adventitious root assay, the number of emerged adventitious roots per plant were counted after 5 days of treatment on plates with or without anchorene.
# Six previously identified or predicted diapocarotenoids with chain lengths ranging from C9 to C15 (Diapo1-6) (FIG. 1B) and 3 apocarotenoids (FIG. 1C) were selected to identify new carotenoid-derived signals involved in root development). These compounds were selected because they are available and stable at ambient conditions. Diapo1 (C9) is the expected product formed upon cleavage of all-trans-β-apo-10′ carotenal. Diapo2 (C10) results from cleaving the C7, C8 and C15, C15′ double bonds in different carotenoids and is produced by cyanobacterial retinal-forming enzymes from Cm-apocarotenoids. Diapo3 (C10) is a structural isomer of Diapo2 and a predicted cleavage product that can be formed by cutting the C11, C12 and C11′, C12′ bonds in almost all plant carotenoids (FIGS. 1A, 1B and 17). Diapo4 (C12) results from cleaving the C7, C8 and C13′, C14′ bonds in many carotenoids, and is formed by the CCD1 from apo-10′-lycopenal.
# [2] = tested on: Arabidopsis seedlings (anchor roots after RAM excision); test: ANR formation after root apical meristem excision (ANR-RE)
# Description: as §1
# ANR formation under carotenoid-deficient conditions was monitored to determine the role of endogenous carotenoids in ANR development. […] Therefore, ANR formation was monitored after RAM excision (ANR-RE) to stimulate ANR development. ANR measurements were used as an indicator of ANR formation capacity under different conditions. […] Norflurazon (NF) and 2-(4-chlorophenylthio)-triethylamine hydrochloride (CPTA), which block phytoene desaturation and lycopene cyclization, respectively were tested (FIG. 6A). The effect of D15, an inhibitor of CCDs was also investigated. Application of D15 to Arabidopsis seedlings is known to lead to an increase in carotenoid levels.
# [3] = tested on: rice (Nipponbare); test: Rice hydroponic growth with anchorene; details: 20 μM anchorene, 6 days
# Experimental: FIGS. 19A-E show anchorene promotes root growth in rice according to one or more embodiments of the present disclosure. […] Color photographs (B) and (C) show the comparison of the whole rice plant (B) and the root structure (C) under Mock and Anchorene treated conditions. (D) and (E) show quantification (cm) of the primary root length (D) and shoot length (E) under Mock and Anchorene treated conditions. 20 μM anchorene was used. The Nipponbare ecotype rice seeds were germinated for 4 days, and then transferred to Hoagland media hydroponic system with or without anchorene treatment for another 6 days. Anchorene was changed every 2 days for three times.
# For rice, sterilized Nipponbare seeds were kept at 30° C. in darkness for 1 day to stimulate germination and transferred to Petri dishes with half strength Murashige and Skoog (MS) media (with 0.5 g/L MES, pH 5.7) and autoclaved filter paper. Dishes were incubated in darkness for 2 days then exposed to light for 1 day in PERCIVAL® growth chamber (12 h light/12 h dark, 26° C., 55% humidity, 500 umol.m^−2.s^−1). Uniform, healthy rice seedlings were transferred to hydroponic culture (Hoagland) supplied with acetone (Mock) or 20 μM anchorene. […] Crown roots number, as well as shoot and root length and fresh weight were recorded to perform the phenotyping.
# [4] = tested on: maize; test: Maize hydroponic growth with anchorene
# Experimental: FIGS. 20A-C show anchorene promotes root growth in maize according to one or more embodiments of the present disclosure. (A) represents the timeline for the hydroponic system for maize growing and anchorene treatment. […] (C) is a histogram quantifying the root and shoot length (cm) of maize seedlings with or without anchorene treatment
# Arabidopsis is a dicot model plant. To test the effect of anchorene on monocot plant and crops, the biological functions of anchorene was evaluated on two important crops, rice and maize, under hydroponic conditions. Excitingly, a clear effect of anchorene on rice primary root and crown root growth (FIGS. 19B-E). A clear effect on shoot growth was not observed during this period, which might indicate anchorene specifically regulates root architecture. Similar effect was also examined in maize (FIGS. 20B-C). […] Root growth promoting not only could better anchor the plant, but also increase the volume of the plant root which will facilitate the water and nutrient absorption for the plant.
structure (smiles),measurement,setting,value
"C\C(C=O)=C/C=C/C=C(\C)C=O [anchorene, 12,12′-diapocarotene-12,12′-dial]",inhibition of primary root growth,"[1]; 25 μM, 7 dps",weak inhibition
same,inhibition of primary root length,"[1]; 8 DAG Col-0 seedlings, different concentrations of anchorene (FIG. 3F)",minor inhibition; also recorded: weak inhibitory effect
same,rescue of ANR-RE in carotenoid biosynthesis inhibitor treated seedlings,[2]; 20 μM anchorene simultaneous with 1 μM NF or 100 μM CPTA,blocked inhibition of ANR-RE
same,rescue of ANR-RE in NPA treated seedlings,[2]; 20 μM anchorene with 1 μM NPA,partially compensated
same,ANR formation in arf7arf19 double mutant,"[2]; arf7arf19, 20 μM anchorene or after RAM excision",did not form any ANR
same,rescue of ANR-RE in psy mutant,"[2]; psy mutant, 20 μM anchorene",restored wild-type ANR-RE
same,rice primary root and crown root growth,[3],clear effect
same,rice shoot growth,[3],not observed
same,growth of primary root and lateral roots in maize,[4],greatly promoted
